Structures are written as SMILES. “And” between values parts separate entries of the source, which are not always exact repeats. Identical values can stand only once. Inconclusive results and toxic doses are left out.

These results are taken from PubChem BioAssay AID330 (DTP/NCI, 2004).

The experiment has as its system P388 leukemia ip, CD2F1 mice, survival T/C. Put plainly: NCI In Vivo Anticancer Drug Screen. Data for tumor model P388 Leukemia (intraperitoneal) in CD2F1 (CDF1) mice. To be noted: endpoint: median survival time, higher = longer survival. The gist of the method:
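Mice carrying the transplanted tumor received test compound or vehicle. Survival was recorded in each group, and the value is the treated-group measurement divided by that of the vehicle-treated control group.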

Setting [1] is: dose: 50.0 mg/kg/injection, schedule: Q01DX009 (ip), vehicle: saline.
Setting [2] is: dose: 100.0 mg/kg/injection, schedule: Q01DX009 (ip), vehicle: saline.
Where [3] appears, read: dose: 200.0 mg/kg/injection, schedule: Q01DX009 (ip), vehicle: saline.
[4] abbreviates: dose: 60.0 mg/kg/injection, schedule: Q01DX005 (ip), vehicle: saline with Tween-80.
[5] abbreviates: dose: 120.0 mg/kg/injection, schedule: Q01DX005 (ip), vehicle: saline with Tween-80.
[6] abbreviates: dose: 50.0 mg/kg/injection, schedule: Q01DX009 (ip), vehicle: saline with Tween-80.

In the case of `CC(C1CC2(C)OC2(CO)C(=O)O1)C1CCC2C3CC4OC45C(O)C4OC4C(=O)C5(C)C3CCC12C` (stereo not drawn), the T/C reads like this: (dose: 5.0 mg/kg/injection, schedule: Q01DX005 (ip), vehicle: Klucel (hydroxypropylcellulose) (HPC)) 96 % of control; (dose: 10.0 mg/kg/injection, schedule: Q01DX005 (ip), vehicle: Klucel (hydroxypropylcellulose) (HPC)) 100 % of control; (dose: 20.0 mg/kg/injection, schedule: Q01DX005 (ip), vehicle: Klucel (hydroxypropylcellulose) (HPC)) 96 % of control; (dose: 40.0 mg/kg/injection, schedule: Q01DX005 (ip), vehicle: Klucel (hydroxypropylcellulose) (HPC)) 92 % of control; (dose: 80.0 mg/kg/injection, schedule: Q01DX005 (ip), vehicle: Klucel (hydroxypropylcellulose) (HPC)) 89 % of control.
In the case of `CC(=O)OC1OC(/C=N\N(C)C)C(OCc2ccccc2)C(OCc2ccccc2)C1OC(C)=O` (stereo not drawn), the T/C is, setting by setting: (dose: 3.12 mg/kg/injection, schedule: Q01DX005 (ip), vehicle: Klucel (hydroxypropylcellulose) (HPC)) 95 % of control; (dose: 6.25 mg/kg/injection, schedule: Q01DX005 (ip), vehicle: Klucel (hydroxypropylcellulose) (HPC)) 97 % of control; (dose: 6.25 mg/kg/injection, schedule: Q01DX009 (ip), vehicle: Klucel (hydroxypropylcellulose) (HPC)) 104 % of control; (dose: 12.5 mg/kg/injection, schedule: Q01DX005 (ip), vehicle: Klucel (hydroxypropylcellulose) (HPC)) 94 % of control; (dose: 12.5 mg/kg/injection, schedule: Q01DX009 (ip), vehicle: Klucel (hydroxypropylcellulose) (HPC)) 92 % of control; (dose: 25.0 mg/kg/injection, schedule: Q01DX009 (ip), vehicle: Klucel (hydroxypropylcellulose) (HPC)) 92 % of control. Further, the T/C was 92 % of control (dose: 25.0 mg/kg/injection, schedule: Q01DX009 (ip), vehicle: other); 88 % of control (dose: 50.0 mg/kg/injection, schedule: Q01DX009 (ip), vehicle: other); 94 % of control (dose: 100.0 mg/kg/injection, schedule: Q01DX009 (ip), vehicle: other); 89 % of control (dose: 200.0 mg/kg/injection, schedule: Q01DX009 (ip), vehicle: other).
`Cc1nnc2cccc(Cl)n12`: the T/C reads like this: (dose: 50.0 mg/kg/injection, schedule: Q01DX001 (ip), vehicle: Klucel (hydroxypropylcellulose) (HPC)) 106 % of control; (dose: 100.0 mg/kg/injection, schedule: Q01DX001 (ip), vehicle: Klucel (hydroxypropylcellulose) (HPC)) 106 % of control; (dose: 200.0 mg/kg/injection, schedule: Q01DX001 (ip), vehicle: Klucel (hydroxypropylcellulose) (HPC)) 99 % of control.
For the compound `Cc1cc2c(C(C)C)c(O)c(O)c(C=NCCO)c2c(O)c1-c1c(C)cc2c(C(C)C)c(O)c(O)c(C=NCCO)c2c1O`, the T/C runs as follows: (dose: 50.0 mg/kg/injection, schedule: Q01DX005 (ip), vehicle: saline with Tween-80) 113 % of control; (dose: 75.0 mg/kg/injection, schedule: Q01DX005 (ip), vehicle: saline with Tween-80) 120 % of control; (dose: 100.0 mg/kg/injection, schedule: Q01DX005 (ip), vehicle: saline with Tween-80) 120 % of control.
On to `FS(F)(F)(F)(F)c1cccc(NC(=S)SCc2ccc(Cl)cc2)c1`, for which the T/C is, setting by setting: under setting [1], 100 % of control; under setting [2], 101 % of control and 95 % of control; under setting [3], 107 % of control and 118 % of control.
Consider `CC(=O)Nc1ccc2c(=O)n(O)c(=O)[nH]c2c1`, for which the T/C by setting is: (dose: 50.0 mg/kg/injection, schedule: Q01DX005 (ip), vehicle: Klucel (hydroxypropylcellulose) (HPC)) 102 % of control; (dose: 100.0 mg/kg/injection, schedule: Q01DX005 (ip), vehicle: Klucel (hydroxypropylcellulose) (HPC)) 103 % of control; (dose: 200.0 mg/kg/injection, schedule: Q01DX005 (ip), vehicle: Klucel (hydroxypropylcellulose) (HPC)) 106 % of control.
For `CC(/C=N\Nc1ccc(Cl)cc1)=N/NC(N)=S`, the T/C runs as follows: (dose: 100.0 mg/kg/injection, schedule: Q04DX002 (ip), vehicle: saline) 99 % of control; (dose: 200.0 mg/kg/injection, schedule: Q04DX002 (ip), vehicle: saline) 98 % of control.
As to `COc1ccc(C(NC(N)=O)c2cc3c(cc2OC(C)=O)OCO3)cc1` (stereo not drawn), the T/C (dose: 60.0 mg/kg/injection, schedule: Q01DX005 (ip), vehicle: Klucel (hydroxypropylcellulose) (HPC)) is 98 % of control; the T/C (dose: 120.0 mg/kg/injection, schedule: Q01DX005 (ip), vehicle: Klucel (hydroxypropylcellulose) (HPC)) was 92 % of control; the T/C (dose: 240.0 mg/kg/injection, schedule: Q01DX005 (ip), vehicle: Klucel (hydroxypropylcellulose) (HPC)) is 93 % of control.
As for `O=C(O)Cc1ccc(N2N=C(c3ccccc3)CC2=O)cc1`, the T/C was 98 % of control under setting [4] and 92 % of control under setting [5].
`C=C1C[C@@H]2[C@H](C1=O)[C@@H]1CC[C@H]3O[C@]31C2(C)C`: the T/C (dose: 50.0 mg/kg/injection, schedule: Q04DX002 (ip), vehicle: Klucel (hydroxypropylcellulose) (HPC)) was 106 % of control; the T/C (dose: 100.0 mg/kg/injection, schedule: Q04DX002 (ip), vehicle: Klucel (hydroxypropylcellulose) (HPC)) is 101 % of control; the T/C (dose: 200.0 mg/kg/injection, schedule: Q04DX002 (ip), vehicle: Klucel (hydroxypropylcellulose) (HPC)) is 100 % of control.
Consider `O=C1N(Cl)C(=O)C(c2ccc(Cl)cc2)(c2ccc(Cl)cc2)N1Cl`, for which the T/C was 118 % of control (dose: 12.5 mg/kg/injection, schedule: Q01DX009 (ip), vehicle: saline with Tween-80) and 150 % of control under setting [6].
`C=CC(=O)NC(C)C(=O)O` (stereo not drawn): the T/C is 100 % of control under setting [1], 99 % of control under setting [2] and 107 % of control under setting [3].
The matching figures for `COc1ccc(C2CC(=O)C(C)C(c3ccc(OC)cc3)N2)cc1` (stereo not drawn): 100 % of control, 104 % of control and 100 % of control.
Regarding `CNc1ncnc2c1ncn2C1CCCCO1` (stereo not drawn), the T/C reads like this: (dose: 50.0 mg/kg/injection, schedule: Q01DX005 (ip), vehicle: saline) 102 % of control; (dose: 100.0 mg/kg/injection, schedule: Q01DX005 (ip), vehicle: saline) 100 % of control; (dose: 200.0 mg/kg/injection, schedule: Q01DX005 (ip), vehicle: saline) 91 % of control.
For the compound `CC/C=C\C/C=C\CC1(O)C=C(Cl)C(=O)C1C(OC(C)=O)C(OC(C)=O)C(CCCC(=O)OC)OC(C)=O` (stereo not drawn), the T/C (dose: 2.25 mg/kg/injection, schedule: Q01DX005 (ip), vehicle: Klucel (hydroxypropylcellulose) (HPC)) was 103 % of control; the T/C (dose: 4.5 mg/kg/injection, schedule: Q01DX005 (ip), vehicle: Klucel (hydroxypropylcellulose) (HPC)) is 94 % of control; the T/C (dose: 9.0 mg/kg/injection, schedule: Q01DX005 (ip), vehicle: Klucel (hydroxypropylcellulose) (HPC)) is 100 % of control; the T/C (dose: 18.0 mg/kg/injection, schedule: Q01DX005 (ip), vehicle: Klucel (hydroxypropylcellulose) (HPC)) was 95 % of control; the T/C (dose: 36.0 mg/kg/injection, schedule: Q01DX005 (ip), vehicle: Klucel (hydroxypropylcellulose) (HPC)) is 95 % of control.
`CCOC(=O)CCN(Cc1ccccc1)CC(C)C(=O)OC` (stereo not drawn): the T/C is 100 % of control (dose: 100.0 mg/kg/injection, schedule: Q04DX003 (ip), vehicle: saline with Tween-80); 100 % of control (dose: 200.0 mg/kg/injection, schedule: Q04DX003 (ip), vehicle: saline with Tween-80); 100 % of control (dose: 400.0 mg/kg/injection, schedule: Q04DX003 (ip), vehicle: saline with Tween-80).
As to `O=C(C1CC2CCC1C2)C1CC2CCC1C2` (stereo not drawn), the T/C is, setting by setting: (dose: 28.2 mg/kg/injection, schedule: Q01DX009 (ip), vehicle: saline with Tween-80) 100 % of control; (dose: 56.5 mg/kg/injection, schedule: Q01DX009 (ip), vehicle: saline with Tween-80) 95 % of control; (dose: 113.0 mg/kg/injection, schedule: Q01DX009 (ip), vehicle: saline with Tween-80) 100 % of control.
Take `CCOC(=O)NN(C(=O)OCC)C(=C(C1CCCCC1)N1CCOCC1)N(NC(=O)OCC)C(=O)OCC`: the T/C by setting is: (dose: 50.0 mg/kg/injection, schedule: Q01DX009 (ip), vehicle: Klucel (hydroxypropylcellulose) (HPC)) 95 % of control; (dose: 100.0 mg/kg/injection, schedule: Q01DX009 (ip), vehicle: Klucel (hydroxypropylcellulose) (HPC)) 98 % of control; (dose: 200.0 mg/kg/injection, schedule: Q01DX009 (ip), vehicle: Klucel (hydroxypropylcellulose) (HPC)) 94 % of control.
For `CCCCC(=O)N1C(=O)/C(=C\N(C)C)c2cc(C=O)ccc21`, the T/C is, setting by setting: under setting [6], 90 % of control; (dose: 100.0 mg/kg/injection, schedule: Q01DX009 (ip), vehicle: saline with Tween-80) 90 % of control; (dose: 200.0 mg/kg/injection, schedule: Q01DX009 (ip), vehicle: saline with Tween-80) 90 % of control.
`CCN(CC)c1ccc2cc(C(=O)c3cccs3)c(=O)oc2c1`: the T/C by setting is: under setting [4], 104 % of control; under setting [5], 96 % of control; (dose: 240.0 mg/kg/injection, schedule: Q01DX005 (ip), vehicle: saline with Tween-80) 103 % of control.
